Assay results as given in US20050100510A1, “Methods for using gadolinium as a contrast media” (priority 2003, published 2005).
“Also recorded” adds a separate entry of the source. Like-named read-outs stand apart in the source and are kept apart here.

How the values were obtained:
[1] = cited from earlier work
[2] = First set of test cases: gadolinium lumbar discography with fluoroscopy and CT; assay type: in vivo, human; conditions: for visibility of contrast on computer axial tomography: approximately one-hundred-and-sixty minutes after injection, case 1-1
Description: A first set of test cases was conducted wherein it was identified that gadolinium would adequately opacify, thereby allowing adequate fluoroscopic imaging for of soft tissue portions of the spinal area and, for example, for lumbar discography procedures. […] During the first set of test cases, a solution of 469.01 mg/ml gadolinium (Magnevist—Berlex Laboratories, Wayne, N.J.) with 25 mg/ml Cefazolin (Apothecon, Princeton, N.J.) for antibacterial prophylaxis was injected into each disc using a standard three milliliter syringe. The following is a brief synopsis of six tests from the first set of tests:
The volume of contrast injected at pain onset, the end point (nucleography), the pain intensity measured with the numerical analog scale, and the concordant and/or discordant pain response were recorded for each spinal disc to be injected with gadolinium. Each spinal disc then was visualized with c-arm fluoroscopy to create a visualization of the nucleogram and provocation of the spinal discs.

[3] = Second set of test cases: fluoroscopically guided spinal injections with gadolinium; assay type: in vivo, human
Description: During the second of set of tests, gadolinium was injected into a variety of target portions of the spinal area to create a contrast between the target portion and surrounding tissue. As described below, these contrasts were adequately sensed using fluoroscopy to create visual representations of the contrast between the target portion and the surrounding tissue. The second set of tests utilized a preferred embodiment of the method of using gadolinium as a contrast substance, where a visualization was created to use as a guide for the accurate injection of a diagnostic or therapeutic substance into the target portion of the spinal area. In this respect, visualization of the contrast helps to localize placement of a needle for an injection of a substance avoiding the harm that the injection might cause to surrounding tissue.
The second set of tests comprised chart review, performance of spinal injections with gadolinium under fluoroscopic guidance, and post procedure follow-up by phone at two and twelve weeks to assess any adverse reactions to the gadolinium. […] The tests utilized a contrast substance that was 469.01 mg/ml gadolinium (Magnevist—from Berlex Laboratories, Wayne, N.J.). […]

[4] = Third set of cases: spinal interventional procedures with fluoroscopic guidance, adverse reactions; assay type: in vivo, human
Excerpt: In a third set of cases, two-hundred-and-thirty patients underwent spinal interventional procedures with fluoroscopic guidance. Two-hundred-and-eleven patients were subsequently evaluated for any adverse reaction in the period immediately after the procedure and up to several weeks after the procedure. Seventy-four of the patients were male and one-hundred-and-thirty-seven were female. The age range of the patient population varied from sixteen years old to eighty-one year old, and the average age of the patient population was 48.7 years old. The only prophylactic medications that were administered before the procedure were antibiotics for patients undergoing discography, patients with significant cardiac disease, or patients with surgical implants. The number and type of procedures along with the number of adverse reactions for each procedure type are summarized in below in Table 1: […]

[5] = intravenous administration; cited from earlier work
[6] = repeated exposure in sensitive individuals

For CC(=O)N(CC(O)CO)c1c(I)c(C(=O)NCC(O)CO)c(I)c(C(=O)NCC(O)CO)c1I (stereo not drawn) [iohexol], the anaphylaxis occurrence ([1]; first dose administrations) is listed as “one percent and two percent” and the anaphylaxis occurrence [1, 6] is listed as “seventeen percent and thirty-five percent”.

For C[C@H](O)C(=O)Nc1c(I)c(C(=O)NC(CO)CO)c(I)c(C(=O)NC(CO)CO)c1I [iopamidol], the anaphylaxis occurrence ([1]; first dose administrations) is listed as “one percent and two percent” and the anaphylaxis occurrence [1, 6] is listed as “seventeen percent and thirty-five percent”.

For CNC[C@H](O)[C@@H](O)[C@H](O)[C@H](O)CO.CNC[C@H](O)[C@@H](O)[C@H](O)[C@H](O)CO.O=C([O-])CN(CCN(CC(=O)[O-])CC(=O)O)CCN(CC(=O)[O-])CC(=O)O.[Gd+3] [gadolinium, gadopentate dimeglumine], the “visibility in disc material on fluoroscopic image” value ([2]; after injection into spinal discs) was “fluoroscopically visible; also recorded: clearly visible”, the “visibility of contrast on computer axial tomography” value ([2]; L3-L4 spinal disc) was “visible” and the “visibility of contrast on computer axial tomography” value ([2]; L4-L5 disrupted spinal disc) was “less intensive, but still visible”. For the same compound, the “complications during or after the procedure” value ([2]; intradiscal, 469.01 mg/ml gadolinium with 25 mg/ml Cefazolin, single patient cases) was “No complications”, the “visibility on CT scan” value ([2]; more than one-hundred-and-twenty minutes after injection, discs with and without annular disruption) was “still visible” and the “visibility on computer axial tomography” value ([2]; thirty minutes after completion of the procedure, case 1-2) was “showed gadolinium in each disc”. For the same compound, the “side effects, complications or adverse reactions” value ([3]; 469.01 mg/ml gadolinium (Magnevist), follow-up at two and twelve weeks) was “no side effects or complications; also recorded: None of the individuals in the case series of the present invention had any adverse reactions”, the visibility under fluoroscopy ([3]; soft tissue of the spinal area) was “visible under fluoroscopy” and the “Number of Adverse Reactions” value ([4]; Caudal epidural, 16 procedures) was 0. The “Number of Adverse Reactions” value ([4]; Cervical SNRB, 14 procedures) was 1, the “Number of Adverse Reactions” value ([4]; Cervical interlaminar, 6 procedures) was 1 and the “Number of Adverse Reactions” value ([4]; Lumbar SNRB, 55 procedures) was 4. The “Number of Adverse Reactions” value ([4]; Lumbar discography, 11 procedures) was 0, the “Number of Adverse Reactions” value ([4]; Lumbar epidurolysis, 4 procedures) was 0 and the “Number of Adverse Reactions” value ([4]; Lumbar interlaminar, 37 procedures) was 1. The “Number of Adverse Reactions” value ([4]; Lumbar intraarticular facet, 3 procedures) was 0, the “Number of Adverse Reactions” value ([4]; Lumbar sympathetic, 4 procedures) was 0 and the “Number of Adverse Reactions” value ([4]; Other miscellaneous, 13 procedures) was 1. For the same compound, the “Number of Adverse Reactions” value ([4]; Sacroiliac joint, 59 procedures) was 2, the “quality of visualizations from gadolinium-induced contrasts” value ([4]; all procedures, fluoroscopic devices) was “adequate visualizations” and the serious adverse reactions ([4]; of the five allergic-type reactions, likely due to contributing factors) was “one”. The “adverse reactions attributable to allergic-type reactions” value ([4]; out of the ten adverse reactions) was “five” and the adverse reaction rate [5] was 0.06%.
